EP4477653A1 (Perha Pharmaceuticals, priority 2023, dated 2024)
Like-named read-outs stand apart in the source and are kept apart here.

Key:
[1] = LogD (HPLC); type: physicochemical; details: by HPLC; Table 2
[2] = target: T1, human recombinant A3AR (expressed in HEK-293 cells) (Homo sapiens, UniProt P0DMS8); assay: Adenosine receptors antagonism assay (Eurofins), [125I]-AB-MECA radioligand competition; type: binding
T1 construct: host or cells: HEK-293 cells
T1 sequence (P0DMS8 1-318): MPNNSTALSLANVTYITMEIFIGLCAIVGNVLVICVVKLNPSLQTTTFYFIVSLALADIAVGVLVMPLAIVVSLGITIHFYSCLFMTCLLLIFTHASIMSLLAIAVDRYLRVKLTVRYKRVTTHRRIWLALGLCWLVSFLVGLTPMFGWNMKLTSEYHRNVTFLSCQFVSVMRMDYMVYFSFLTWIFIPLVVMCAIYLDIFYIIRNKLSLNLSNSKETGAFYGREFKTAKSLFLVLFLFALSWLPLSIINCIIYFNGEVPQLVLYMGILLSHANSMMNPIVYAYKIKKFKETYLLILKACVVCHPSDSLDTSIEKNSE

[3] = [125I]-AB-MECA 0.15 nM, r.t., 120 min; IC50 from dose-response curves; read-out: Potency Class A3AR
[4] = read-out: Potency Class A3AR; [125I]-AB-MECA 0.15 nM, r.t., 120 min; IC50 from dose-response curves

SMILES	chromatographic logD [1]	IC50 [2, 3] [nM]	IC50 [2, 4] [nM]
COC1CCC(Nc2cc(NCc3ccccc3)c3nnc(C(C)C)n3n2)CC1 (racemic) [compound 120, N8-benzyl-3-isopropyl-N6-(4-methoxycyclohexyl)-[1,2,4]triazolo[4,3-b]pyridazine-6,8-diamine]	3.09	100 to 1000	
CC(C)c1nnc2c(NCc3ccccc3)cc(NC3CCCCC3O)nn12 (racemic) [compound 134, racemic trans-2-[[8-(benzylamino)-3-isopropyl-[1,2,4]triazolo[4,3-b]pyridazin-6-yl]amino]cyclohexanol]	2.73		10 to 100
CC(C)c1nnc2c(NCc3ccccc3)cc(NCC3CCCO3)nn12 (racemic) [compound 142, N8-benzyl-3-isopropyl-N6-(tetrahydrofuran-2-ylmethyl)-[1,2,4]triazolo[4,3-b]pyridazine-6,8-diamine]	2.87	100 to 1000	
CC(C)c1nnc2c(NCc3ccccc3)cc(NC3CCc4ccccc43)nn12 (racemic) [compound 146, N8-benzyl-N6-indan-1-yl-3-isopropyl-[1,2,4]triazolo[4,3-b]pyridazine-6,8-diamine]	4.1	10 to 100	
CC(C)c1nnc2c(NCc3ccccc3)cc(N[C@H]3CC[C@H](O)CC3)nn12 [(135), racemic trans-4-[[8-(benzylamino)-3-isopropyl-[1,2,4]triazolo[4,3-b]pyridazin-6-yl]amino]cyclohexanol]	2.22		
CC(C)c1nnc2c(NCc3ccccc3)cc(NC3CCC3)nn12 [compound 117, N8-benzyl-N6-cyclobutyl-3-isopropyl-[1,2,4]triazolo[4,3-b]pyridazine-6,8-diamine]	3.47	10 to 100	
CC(C)c1nnc2c(NCc3ccccc3)cc(NC3CCCC3)nn12 [compound 118, N8-benzyl-N6-cyclopentyl-3-isopropyl-[1,2,4]triazolo[4,3-b]pyridazine-6,8-diamine]	3.84	1 to 10	
CC(C)c1nnc2c(NCc3ccccc3)cc(NC3CCCCC3)nn12 [compound 119, N8-benzyl-N6-cyclohexyl-3-isopropyl-[1,2,4]triazolo[4,3-b]pyridazine-6,8-diamine]	4.17	10 to 100	
CC(C)c1nnc2c(NCc3ccccc3)cc(NC3CCCCCC3)nn12 [compound 121, N8-benzyl-N6-cycloheptyl-3-isopropyl-[1,2,4]triazolo[4,3-b]pyridazine-6,8-diamine]	4.57	10 to 100	
CC(C)c1nnc2c(NCc3ccccc3)cc(NCC3CC3)nn12 [compound 122, N8-benzyl-N6-(cyclopropylmethyl)-3-isopropyl-[1,2,4]triazolo[4,3-b]pyridazine-6,8-diamine]	3.33	10 to 100	
CC(C)c1nnc2c(NCc3ccccc3)cc(NCC3CCC3)nn12 [compound 123]	3.86		10 to 100
CC(C)c1nnc2c(NCc3ccccc3)cc(NCC3CCCCC3)nn12 [compound 124, N8-benzyl-N6-(cyclohexylmethyl)-3-isopropyl-[1,2,4]triazolo[4,3-b]pyridazine-6,8-diamine]	4.6	10 to 100	
CC(C)c1nnc2c(NCc3ccccc3)cc(NCC3CCOCC3)nn12 [compound 125, N8-benzyl-3-isopropyl-N6-(tetrahydropyran-4-ylmethyl)-[1,2,4]triazolo[4,3-b]pyridazine-6,8-diamine]	2.74	100 to 1000	
CCC(CC)CNc1cc(NCc2ccccc2)c2nnc(C(C)C)n2n1 [compound 126, N8-benzyl-N6-(2-ethylbutyl)-3-isopropyl-[1,2,4]triazolo[4,3-b]pyridazine-6,8-diamine]	4.42	1 to 10	
CC(C)c1nnc2c(NCc3ccccc3)cc(NCCc3ccccc3)nn12 [compound 127, N8-benzyl-3-isopropyl-N6-(2-phenylethyl)-[1,2,4]triazolo[4,3-b]pyridazine-6,8-diamine]	3.78	10 to 100	
CC(C)c1nnc2c(NCc3ccccc3)cc(NCCOc3ccccc3)nn12 [compound 128, N8-benzyl-3-isopropyl-N6-(2-phenoxyethyl)-[1,2,4]triazolo[4,3-b]pyridazine-6,8-diamine]	3.68	100 to 1000	
CC(C)c1nnc2c(NCc3ccccc3)cc(NCc3nccn3C)nn12 [compound 129, N8-benzyl-3-isopropyl-N6-[(1-methylimidazol-2-yl)methyl]-[1,2,4]triazolo[4,3-b]pyridazine-6,8-diamine]	1.95	100 to 1000	
CC(C)c1nnc2c(NCc3ccccc3)cc(NCc3ccccc3)nn12 [compound 130, N6,N8-dibenzyl-3-isopropyl-[1,2,4]triazolo[4,3-b]pyridazine-6,8-diamine]	3.5	1 to 10	

SMILES	chromatographic logD [1]	IC50 [2, 3] [nM]	IC50 [2, 4] [nM]
CC(C)c1nnc2c(NCc3ccccc3)cc(NCc3ccccn3)nn12 [compound 131, N8-benzyl-3-isopropyl-N6-(2-pyridylmethyl)-[1,2,4]triazolo[4,3-b]pyridazine-6,8-diamine]	2.51	10 to 100	
CC(C)c1nnc2c(NCc3ccccc3)cc(NCc3cccnc3)nn12 [compound 132, N8-benzyl-3-isopropyl-N6-(3-pyridylmethyl)-[1,2,4]triazolo[4,3-b]pyridazine-6,8-diamine]	2.36	10 to 100	
CC(C)c1nnc2c(NCc3ccccc3)cc(NCc3ccncc3)nn12 [compound 133, N8-benzyl-3-isopropyl-N6-(4-pyridylmethyl)-[1,2,4]triazolo[4,3-b]pyridazine-6,8-diamine]	2.36	100 to 1000	
CC(C)c1nnc2c(NCc3ccccc3)cc(NCC3(C)CCCCC3)nn12 [compound 136]	4.88		10 to 100
CC(C)c1nnc2c(NCc3ccccc3)cc(NC34CC5CC(CC(C5)C3)C4)nn12 [compound 137, N6-(1-adamantyl)-N8-benzyl-3-isopropyl-[1,2,4]triazolo[4,3-b]pyridazine-6,8-diamine]	5.02	100 to 1000	
c1ccc(CNc2cc(N3CCCCC3)nn3c(C4CC4)nnc23)nc1 [compound 207, 3-cyclopropyl-6-(1-piperidyl)-N-(2-pyridylmethyl)-[1,2,4]triazolo[4,3-b]pyridazin-8-amine]		100 to 1000	
c1ccc(CNc2cc(NCc3ccco3)nn3c(C4CC4)nnc23)nc1 [compound 208, 3-cyclopropyl-N6-(furan-2-ylmethyl)-N8-(pyridin-2-ylmethyl)-[1,2,4]triazolo[4,3-b]pyridazine-6,8-diamine]		1 to 10	
c1ccc(CNc2cc(NCc3ccoc3)nn3c(C4CC4)nnc23)nc1 [compound 209, 3-cyclopropyl-N6-(furan-3-ylmethyl)-N8-(pyridin-2-ylmethyl)-[1,2,4]triazolo[4,3-b]pyridazine-6,8-diamine]		1 to 10	
c1ccc(CNc2cc(NCc3cccs3)nn3c(C4CC4)nnc23)nc1 [compound 210, 3-cyclopropyl-N8-(pyridin-2-ylmethyl)-N6-(thiophen-2-ylmethyl)-[1,2,4]triazolo[4,3-b]pyridazine-6,8-diamine]		1 to 10	
CC[C@H](CO)Nc1cc(NCc2ccccn2)c2nnc(C3CC3)n2n1 [compound 211, (R)-2-((3-cyclopropyl-8-((pyridin-2-ylmethyl)amino)-[1,2,4]triazolo[4,3-b]pyridazin-6-yl)amino)butan-1-ol]		10 to 100	
CC[C@@H](CO)Nc1cc(NCc2ccccn2)c2nnc(C3CC3)n2n1 [compound 212, (S)-2-((3-cyclopropyl-8-((pyridin-2-ylmethyl)amino)-[1,2,4]triazolo[4,3-b]pyridazin-6-yl)amino)butan-1-ol]		10 to 100	
c1ccc(CNc2cc(N[C@@H]3CCOC3)nn3c(C4CC4)nnc23)nc1 [compound 213, (R)-3-cyclopropyl-N8-(pyridin-2-ylmethyl)-N6-(tetrahydrofuran-3-yl)-[1,2,4]triazolo[4,3-b]pyridazine-6,8-diamine]		100 to 1000	
c1ccc(CNc2cc(N[C@@H]3CCCOC3)nn3c(C4CC4)nnc23)nc1 [compound 214, (R)-3-cyclopropyl-N8-(pyridin-2-ylmethyl)-N6-(tetrahydro-2H-pyran-3-yl)-[1,2,4]triazolo[4,3-b]pyridazine-6,8-diamine]		100 to 1000	
CCC(CC)Nc1cc(Nc2ccc(OC)nn2)c2nnc(C3CC3)n2n1 [compound 215, 3-cyclopropyl-N8-(6-methoxypyridazin-3-yl)-N6-(pentan-3-yl)-[1,2,4]triazolo[4,3-b]pyridazine-6,8-diamine]		< 1	
CCC(CC)Nc1cc(NCc2cccnn2)c2nnc(C3CC3)n2n1 [compound 216, 3-cyclopropyl-N6-(pentan-3-yl)-N8-(pyridazin-3-ylmethyl)-[1,2,4]triazolo[4,3-b]pyridazine-6,8-diamine]		1 to 10	
CCC(CC)Nc1cc(NCCc2ccccc2)c2nnc(C3CC3)n2n1 [compound 217, 3-cyclopropyl-N6-(pentan-3-yl)-N8-phenethyl-[1,2,4]triazolo[4,3-b]pyridazine-6,8-diamine]		1 to 10	
c1ccc(CNc2cc(NCc3ccsc3)nn3c(C4CC4)nnc23)nc1 [compound 218, 3-cyclopropyl-N8-(pyridin-2-ylmethyl)-N6-(thiophen-3-ylmethyl)-[1,2,4]triazolo[4,3-b]pyridazine-6,8-diamine]		1 to 10	
